Experimental data: US6914045B2, “Glycopeptide antibiotics” (Wyeth Holdings Corporation, priority 2001, dated 2005)
≈ marks a conversion by molar mass, not a printed value.

Key:
Assay in all cases: in vitro antibacterial evaluation, MIC by broth dilution
Assay type in all cases: cell-based
Enterococcus sp. = conditions: broth dilution, 18 hours at 35° C.
Procedure, shortened: (§1)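 Test organisms, which included recent clinical isolates resistant to methicillin, penicillin and/or vancomycin, were inoculated at 5×10^5 CFU/mL into Muller-Hinton II […] containing antibiotic at 64-0.06 μg/mL. Minimum inhibitory concentrations were then read as the lowest level inhibiting growth.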

Escherichia coli = test system: Escherichia coli
Procedure, shortened: as §1

Staphylococcus sp. = conditions: broth dilution, 18 hours at 35° C.; for MIC Staphylococcus aureus (GC 1131): strain GC 1131
Procedure, shortened: as §1

Streptococcus sp. = conditions: broth dilution, 18 hours at 35° C.
Procedure, shortened: as §1

- MIC Enterococcus avium (GC 4558) (Enterococcus sp.; Enterococcus avium (GC 4558)): 32 µg/mL (≈ 22.2 µM)
- MIC Enterococcus faecalis (ATCC 29212) (Enterococcus sp.; Enterococcus faecalis (ATCC 29212)): 32 µg/mL (≈ 22.2 µM)
- MIC Enterococcus faecalis (GC 2242) (Enterococcus sp.; Enterococcus faecalis (GC 2242)): 16 µg/mL (≈ 11.1 µM)
- MIC Enterococcus faecalis (GC 2691) (Enterococcus sp.; Enterococcus faecalis (GC 2691)): 32 µg/mL (≈ 22.2 µM)
- MIC Enterococcus faecalis (GC 3059) (Enterococcus sp.; Enterococcus faecalis (GC 3059)): 32 µg/mL (≈ 22.2 µM)
- MIC Enterococcus faecalis (GC 4552) (Enterococcus sp.; Enterococcus faecalis (GC 4552)): 32 µg/mL (≈ 22.2 µM)
- MIC Enterococcus faecalis (GC 4553) (Enterococcus sp.; Enterococcus faecalis (GC 4553)): 32 µg/mL (≈ 22.2 µM)
- MIC Enterococcus faecalis (GC 4554) (Enterococcus sp.; Enterococcus faecalis (GC 4554)): 32 µg/mL (≈ 22.2 µM)
- MIC Enterococcus faecalis (GC 6189) (Enterococcus sp.; Enterococcus faecalis (GC 6189)): 64 µg/mL (≈ 44.4 µM)
- MIC Enterococcus faecium (GC 2243) (Enterococcus sp.; Enterococcus faecium (GC 2243)): 32 µg/mL (≈ 22.2 µM)
- MIC Enterococcus faecium (GC 4556) (Enterococcus sp.; Enterococcus faecium (GC 4556)): 32 µg/mL (≈ 22.2 µM)
- MIC Enterococcus faecium (GC 4557) (Enterococcus sp.; Enterococcus faecium (GC 4557)): 8 µg/mL (≈ 5.55 µM)
- MIC Enterococcus faecalis (ATCC 29212) (Enterococcus sp.; strain ATCC 29212): 32 µg/mL (≈ 22.2 µM)
- MIC Enterococcus faecalis (GC 2242) (Enterococcus sp.; strain GC 2242): 16 µg/mL (≈ 11.1 µM)
- MIC Enterococcus faecium (GC 2243) (Enterococcus sp.; strain GC 2243): 32 µg/mL (≈ 22.2 µM)
- MIC Enterococcus faecalis (GC 2691) (Enterococcus sp.; strain GC 2691): 32 µg/mL (≈ 22.2 µM)
- MIC Enterococcus faecalis (GC 3059) (Enterococcus sp.; strain GC 3059): 32 µg/mL (≈ 22.2 µM)
- MIC Enterococcus faecalis (GC 4552) (Enterococcus sp.; strain GC 4552): 32 µg/mL (≈ 22.2 µM)
- MIC Enterococcus faecalis (GC 4553) (Enterococcus sp.; strain GC 4553): 32 µg/mL (≈ 22.2 µM)
- MIC Enterococcus faecalis (GC 4554) (Enterococcus sp.; strain GC 4554): 32 µg/mL (≈ 22.2 µM)
- MIC Enterococcus faecium (GC 4556) (Enterococcus sp.; strain GC 4556): 32 µg/mL (≈ 22.2 µM)
- MIC Enterococcus faecium (GC 4557) (Enterococcus sp.; strain GC 4557): 8 µg/mL (≈ 5.55 µM)
- MIC Enterococcus avium (GC 4558) (Enterococcus sp.; strain GC 4558): 32 µg/mL (≈ 22.2 µM)
- MIC Enterococcus faecalis (GC 6189) (Enterococcus sp.; strain GC 6189): 64 µg/mL (≈ 44.4 µM)
- MIC Escherichia coli (ATCC 25922) (Escherichia coli; strain ATCC 25922, 18 hours at 35° C.): >64 µg/mL
- MIC Escherichia coli (GC 4559) (Escherichia coli; strain GC 4559, 18 hours at 35° C.): >64 µg/mL
- MIC Escherichia coli (GC 4560) (Escherichia coli; strain GC 4560, 18 hours at 35° C.): 2 µg/mL (≈ 1.39 µM)
- MIC Staphylococcus aureus (GC 1131) (Staphylococcus sp.; inoculum 5×10^5 CFU/mL): 8 µg/mL (≈ 5.55 µM)
- MIC Staphylococcus aureus (ATCC 29213) (Staphylococcus sp.; strain ATCC 29213): 8 µg/mL (≈ 5.55 µM)
- MIC Staphylococcus aureus (GC 1131) (Staphylococcus sp.): 8 µg/mL (≈ 5.55 µM)
- MIC Staphylococcus aureus (GC 3051) (Staphylococcus sp.; strain GC 3051): 8 µg/mL (≈ 5.55 µM)
- MIC Staphylococcus aureus (GC 3053) (Staphylococcus sp.; strain GC 3053): 16 µg/mL (≈ 11.1 µM)
- MIC Staphylococcus aureus (GC 4541) (Staphylococcus sp.; strain GC 4541): 4 µg/mL (≈ 2.77 µM)
- MIC Staphylococcus aureus (GC 4542) (Staphylococcus sp.; strain GC 4542): 8 µg/mL (≈ 5.55 µM)
- MIC Staphylococcus aureus-SMITH (GC 4543) (Staphylococcus sp.; strain GC 4543): 8 µg/mL (≈ 5.55 µM)
- MIC Staphylococcus aureus (GC 4544) (Staphylococcus sp.; strain GC 4544): 8 µg/mL (≈ 5.55 µM)
- MIC Staphylococcus aureus (GC 4545) (Staphylococcus sp.; strain GC 4545): 4 µg/mL (≈ 2.77 µM)
- MIC Coagulase Negative Staphylococcus (GC 4547) (Staphylococcus sp.; strain GC 4547): 4 µg/mL (≈ 2.77 µM)
- MIC Coagulase Negative Staphylococcus (GC 4548) (Staphylococcus sp.; strain GC 4548): 4 µg/mL (≈ 2.77 µM)
- MIC Coagulase Negative Staphylococcus (GC 4549) (Staphylococcus sp.; strain GC 4549): 2 µg/mL (≈ 1.39 µM)
- MIC Coagulase Negative Staphylococcus (GC 4551) (Staphylococcus sp.; strain GC 4551): 8 µg/mL (≈ 5.55 µM)
- MIC Coagulase Negative Staphylococcus (GC 6257) (Staphylococcus sp.; strain GC 6257): 2 µg/mL (≈ 1.39 µM)
- MIC Staphylococcus aureus-SMITH (GC 4543) (Staphylococcus sp.; strain SMITH GC 4543): 8 µg/mL (≈ 5.55 µM)
- MIC Streptococcus agalactiae (GC 4564) (Streptococcus sp.; Streptococcus agalactiae (GC 4564)): 4 µg/mL (≈ 2.77 µM)
- MIC Streptococcus pneumoniae (ATCC 6301) (Streptococcus sp.; Streptococcus pneumoniae (ATCC 6301)): 1 µg/mL (≈ 0.693 µM)
- MIC Streptococcus pneumoniae (GC 1894) (Streptococcus sp.; Streptococcus pneumoniae (GC 1894)): 0.5 µg/mL (≈ 0.347 µM)
- MIC Streptococcus pneumoniae (GC 4565) (Streptococcus sp.; Streptococcus pneumoniae (GC 4565)): 1 µg/mL (≈ 0.693 µM)
- MIC Streptococcus pyogenes (GC 4563) (Streptococcus sp.; Streptococcus pyogenes (GC 4563)): 2 µg/mL (≈ 1.39 µM)
- MIC Streptococcus pneumoniae (ATCC 6301) (Streptococcus sp.; strain ATCC 6301): 1 µg/mL (≈ 0.693 µM)
- MIC Streptococcus pneumoniae (GC 1894) (Streptococcus sp.; strain GC 1894): 0.5 µg/mL (≈ 0.347 µM)
- MIC Streptococcus pyogenes (GC 4563) (Streptococcus sp.; strain GC 4563): 2 µg/mL (≈ 1.39 µM)
- MIC Streptococcus agalactiae (GC 4564) (Streptococcus sp.; strain GC 4564): 4 µg/mL (≈ 2.77 µM)
- MIC Streptococcus pneumoniae (GC 4565) (Streptococcus sp.; strain GC 4565): 1 µg/mL (≈ 0.693 µM)
SMILES: Cc1cc(C2OCC3OC(OC4C(CO)OC(Oc5ccc(CC6NC(=O)C(C(C)c7ccccc7)NC(=O)CNC(=O)C(CO)NC(=O)C(C(O)C7CNC(=N)N7C7OC(CO)C(O)C(O)C7O)NC(=O)C(C(O)C7CNC(=N)N7)NC6=O)cc5)C(O)C4O)C(O)C(O)C3O2)ccc1[N+](=O)[O-] (stereo not drawn) [Example 151]
- MIC Staphylococcus haemolyticus (GC 4546) (Staphylococcus sp.; strain GC 4546): 2 µg/mL (≈ 1.39 µM)
